# Data: US12168008B2, “Oxabicycloheptanes for modulation of immune response” (LIXTE BIOTECHNOLOGY, INC., priority 2016, dated 2024)
# Columns and labels:
# [1] = clinical; type: in vivo, human; settings: in vivo; for half-life: 2.33 mg/m2, T1/2
# Procedure: The main objective was to determine the safety, tolerability, and maximum tolerated dose of LB-100 given intravenously daily for three consecutive days every 3 weeks. The secondary objectives were to document any evidence of potential anti-tumor activity and obtain pharmacokinetic data on LB-100 and a metabolite, endothall, in patients receiving LB-100 at the MTD (Quang et al., 2016).
# The plasma concentrations of LB-100 and endothall were measured (Quang et al., 2016) prior to and over 4 hours after completion of the 2-hour infusion at the MTD of 2.33 mg/m2 of LB-100 on day 1 in one patient and on day 1 and 3 in two patients. […] Plasma concentrations of endothall were low throughout the infusion, being below the lower limit of detection (5 ng/mL) in one patient.
# [2] = tested on: B16F10 cells; assay: B16F10 melanoma tumor prevention model; type: in vivo, mouse; settings: day 15 after tumor implantation
# Procedure: LB-100 and aPD-1 enhance anti-tumor activity in B16 melanoma without histologic evidence of autoimmunity: It was next determined whether LB-100/aPD-1 combination was effective against other aPD-1 resistant tumor. In a tumor prevention model, 6-8 weeks old C57BL/6 mice were randomized into four treatment groups: PBS, LB-100, aPD-1 and combination. B16F10 cells (2.5×10^5) were inoculated 2 days after initiation of treatment subcutaneously in the right thoracic flank. Treatments were administered every two days following survival (FIG. 34A). By day 15 after tumor implantation, there was no difference between control and the single agent arms.
# Syngeneic tumor models—Mice were maintained and experiments were conducted with the approval of the NINDS Animal Use and Care Committees. For CT26 tumors: BALB/c (6-8 wk old) were purchased from Charles River Laboratory. CT26 cells (0.5×10^6) were injected into the right flank subcutaneously. […] Treatments were given every 2 days for 30 days. […]
# [3] = tested on: mouse B16 melanoma; assay: B16 melanoma tumor-bearing mice (FIG. 12, 17-19); type: in vivo
# Procedure: FIG. 12. […] Treatment was started on the same day of tumor implantation. Control—PBS, Low dose—0.16 mg/kg, Medium dose—0.32 mg/kg.
# FIG. 17A. CD8+CD44+ effector T cells are increased with PP2A inhibitor LB-100 treatment. Percentage of CD8+CD44+T effector cells population in tumor draining lymph node from B16 tumor bearing mice treated with LB-100 or PBS. 5 mice per group.
# [4] = tested on: Primary human T cells and Jurkat T cells; assay: In vitro studies PP2A and CTLA4 (Example 2); type: cell-based
# Procedure: Primary human T cells and Jurkat T cells are treated with LB-100 and T-cell activation levels measured. LB-100 increases activation of the T cells.
# Primary human T cells and Jurkat T cells are treated with LB-100 and PP2A:CTLA-4 interaction is assessed. LB-100 decreases the interaction of PP2A and CTLA-4.
# Primary human T cells and Jurkat T cells are treated with LB-100 and levels of PP2A phosphorylation are measured. LB-100 increases phosphorylation in the T cells.
# [5] = tested on: PP2A; assay: PP2A phosphatase assay in activated T cells; type: cell-based, mouse; settings: 3 hours after stimulation with CD3 and CD28; greater effect in CD8
# Procedure: LB-100 inhibits PP2A activity and enhances mTORC1 activation: PP2A enzymatic activity of isolated CD4 and CD8 cells from mice splenocytes were measured 3 hours after in vitro stimulation with plated CD3 and soluble CD28.
# PP2A phosphatase assay—Mouse CD4+ and CD8+ T cells were isolated with CD4 and CD8 isolation kit (StemCell) respectively. Cells were activated using immobilized anti-CD3 (10 ug/ml) and soluble anti-CD28 (2 ug/ml) for three hour. PP2A activity was then evaluated after immunoprecipitation using a malachite green phosphatase assay kit as per the manufacturer's instructions (EMD Millipore).
# [6] = tested on: mTORC1, mTORC2 and PI(3)K-AKT pathways; assay: Phosphoflow of AKT and S6 in activated CD3 cells; type: cell-based, mouse; settings: after 3 hours of activation
# Procedure: After 3 hours of in vitro activation of isolated CD3 cells, the activity of mTORC1, mTORC2 and PI(3)K-AKT pathways were assessed by checking the phosphorylation of ribosomal S6 protein (S6), AKT at […] and AKT at Thr308 respectively. […] This difference was not observed in any of the 3 pathways at an early time point of 30 minutes after activation (FIG. 37).
# Isolation of TILs—Mice were injected in the right thoracic flank with 0.5×10^6 CT26 cells and treated as above after tumors reached between 50-100 mm^3. After 2 treatments, mice were sacrificed and tumors excised. Tumors were subjected to mechanical disruption using a GentleMACS Dissociator (Miltenyi Biotec) in presence of enzymatic digestion using Tumor Dissociation Kit (Miltenyi Biotec). Intracellular cytokine staining, phosphoflow and flow cytometry—Suspensions containing T cells were stained with a fixable live/dead stain (Invitrogen) in PBS followed by surface antibody staining in FACS buffer (PBS with 0.5% BSA and 0.1% sodium azide). For intracellular staining, cells were stained for surface molecules following by fixation and permeabilization (eBioscience). For cytokine staining, cells were first stimulated with Cell Stimulation Cocktail (eBioscience) containing PMA/Ionomycin and protein transport inhibitor prior to undergoing staining. […] Cells were analyzed by flow cytometry (LSRII; BD Bioscience). […]
structure (smiles),measurement,setting,value
CN1CCN(C(=O)C2C(C(=O)O)[C@H]3CC[C@@H]2O3)CC1 (stereo partly drawn) [LB-100],half-life,"[1]; female, human",1.35 h
same,"pharmacokinetics of LB-100, in words",[1],"low clearance, low volume of distribution, and a short half-life"
same,T1/2,"[1]; male, human, 2.33 mg/m2",0.95 h
same,half-life,"[1]; male, human",1.1 h
same,"tumor size, single agent arms vs control",[2],no difference
same,B16 melanoma tumor growth,"[3]; every two days for 8 doses from day of implantation, 0.16 and 0.32 mg/kg",reduced mouse B16 melanoma tumor growth significantly
same,CD8+CD44+ effector T cells in tumor draining lymph node,"[3]; vs PBS, 5 mice per group",increased
same,CD44+CD62L− CD4 effector T cells in lymph node,"[3]; vs PBS, 5 mice per group",Increased
same,CD44+CD62L− CD8 effector T cells in lymph node,"[3]; vs PBS, 5 mice per group",Increased
same,PP2A:CTLA-4 interaction,[4],decreases
same,T-cell activation levels,[4],increases
same,levels of PP2A phosphorylation in the T cells,[4],increases
same,PP2A enzymatic activity in CD4 and CD8 cells,[5],dose dependent decrease
same,activity of mTORC1 as measured by phosphorylation of S6,[6],dose dependent increase
same,mTORC2 and PI(3)K-AKT pathways (AKT phosphorylation),[6],minimal effect
